Measured values from ChEMBL document CHEMBL1155003, “Halicyclamine A, a marine spongean alkaloid as a lead for anti-tuberculosis agent” (2008).
Values after ≈ are worked out from the molar mass of the structure shown.

Columns and labels:
Format in all cases: functional
Details in all cases: 336 h
[1] = tested on: Mycobacterium tuberculosis; experiment: Antitubercular activity against ethambutol-resistant Mycobacterium tuberculosis H37Rv ATCC 35837 after 14 days
[2] = tested on: Mycobacterium tuberculosis; experiment: Antitubercular activity against rifampicin-resistant Mycobacterium tuberculosis H37Rv ATCC 35838 after 14 days
[3] = tested on: Mycobacterium tuberculosis; experiment: Antitubercular activity against streptomycin-resistant Mycobacterium tuberculosis H37Rv ATCC 35820 after 14 days
[4] = tested on: Mycobacterium tuberculosis; experiment: Antitubercular activity against isoniazid-resistant Mycobacterium tuberculosis H37Rv ATCC 35822 after 14 days

`C1=C2CCCC/C=C\C=C\CCN3CC[C@@H]4[C@H](CCCCCC/C=C\C=C/CCN(C2)C[C@H]14)C3` [HALICYCLAMINE A] was tested, and the MIC [1] was 3.13 µg/mL (≈ 6.76 µM), the MIC [2] was 3.13 µg/mL (≈ 6.76 µM) and the MIC [3] was 6.25 µg/mL (≈ 13.5 µM). It also gave an MIC [4] of 3.13 µg/mL (≈ 6.76 µM).
